“And” between values parts separate entries of the source, which are not always exact repeats. Equal values may be shown once.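 1) Cells in 96-well plates. 2) Compound, 48 h, 5 concentrations. 3) Linear interpolation between surrounding doses. 4) Unreached endpoint = highest concentration. GI50: concentration for 50% inhibition of growth. Definition used: TGI = concentration required for complete inhibition of growth.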
Columns and labels:
Assay in all cases: DTP human tumour cell line panel, 48 h
SN12C renal = tested on: SN12C renal
U251 CNS = tested on: U251 CNS
HOP-62 NSCLC = tested on: HOP-62 NSCLC
CCRF-CEM leukemia = tested on: CCRF-CEM leukemia
RPMI-8226 leukemia = tested on: RPMI-8226 leukemia
UACC-257 melanoma = tested on: UACC-257 melanoma
IGROV1 ovarian = tested on: IGROV1 ovarian
SK-OV-3 ovarian = tested on: SK-OV-3 ovarian
ACHN renal = tested on: ACHN renal
OVCAR-3 ovarian = tested on: OVCAR-3 ovarian

Structure (SMILES): CC[C@@H]1C(=O)N(C)c2cnc(Nc3ccc(C(=O)NC4CCN(C)CC4)cc3OC)nc2N1C1CCCC1
- GI50 (SN12C renal): 0.0233 µM and 0.039 µM
- TGI (SN12C renal): 4.32 µM and 14.1 µM
- GI50 (U251 CNS): 0.00492 µM and < 0.01 µM
- TGI (U251 CNS): > 10 µM and 7.79 µM
- GI50 (HOP-62 NSCLC): 0.00533 µM and < 0.01 µM
- TGI (HOP-62 NSCLC): > 10 µM and 6.35 µM
- GI50 (CCRF-CEM leukemia): 0.00236 µM and < 0.01 µM
- TGI (CCRF-CEM leukemia): 2.9 µM and 1.26 µM
- GI50 (RPMI-8226 leukemia): 0.0198 µM and 0.0395 µM
- TGI (RPMI-8226 leukemia): 1.69 µM and 1.91 µM
- GI50 (UACC-257 melanoma): 0.903 µM and 0.103 µM
- TGI (UACC-257 melanoma): > 5.26 µM and 1.98 µM
- TGI (IGROV1 ovarian): 4.15 µM and 11.8 µM
- GI50 (SK-OV-3 ovarian): 0.00746 µM and < 0.01 µM
- TGI (SK-OV-3 ovarian): 0.593 µM and 0.128 µM
- GI50 (ACHN renal): 0.148 µM and 0.0895 µM
- TGI (ACHN renal): > 5.11 µM and 2.24 µM
- GI50 (OVCAR-3 ovarian): 0.00353 µM and < 0.01 µM

Structure (SMILES): O=C(c1ccccc1)c1nnc(C(=O)c2ccccc2)nn1
- TGI (SN12C renal): > 344 µM
- TGI (U251 CNS): > 344 µM
- TGI (HOP-62 NSCLC): > 344 µM
- TGI (CCRF-CEM leukemia): > 344 µM
- TGI (RPMI-8226 leukemia): > 344 µM
- TGI (UACC-257 melanoma): > 344 µM
- TGI (IGROV1 ovarian): > 344 µM
- TGI (SK-OV-3 ovarian): > 344 µM
- TGI (ACHN renal): > 344 µM
- TGI (OVCAR-3 ovarian): > 344 µM

Structure (SMILES): COc1ccc(-c2cc(=O)c3ccc(O)cc3o2)cc1OC
- TGI (SN12C renal): > 100 µM
- TGI (U251 CNS): > 100 µM
- TGI (HOP-62 NSCLC): > 100 µM
- TGI (CCRF-CEM leukemia): > 100 µM
- TGI (RPMI-8226 leukemia): > 100 µM
- TGI (UACC-257 melanoma): > 100 µM
- TGI (IGROV1 ovarian): > 100 µM
- TGI (SK-OV-3 ovarian): > 100 µM
- TGI (ACHN renal): > 100 µM
- TGI (OVCAR-3 ovarian): > 100 µM

Structure (SMILES): O=c1[nH]ncc(Br)c1Br
- GI50 (SN12C renal): 2.34 µM
- TGI (SN12C renal): 6.13 µM
- GI50 (U251 CNS): 1.66 µM
- TGI (U251 CNS): 3.02 µM
- GI50 (HOP-62 NSCLC): 5.65 µM
- TGI (HOP-62 NSCLC): 18.1 µM
- GI50 (CCRF-CEM leukemia): 2.16 µM
- TGI (CCRF-CEM leukemia): 5.35 µM
- GI50 (RPMI-8226 leukemia): 1.91 µM
- TGI (RPMI-8226 leukemia): 6.18 µM
- GI50 (UACC-257 melanoma): 2 µM
- TGI (UACC-257 melanoma): 4.84 µM
- GI50 (IGROV1 ovarian): 1.72 µM
- TGI (IGROV1 ovarian): 3.68 µM
- GI50 (SK-OV-3 ovarian): 13.9 µM
- TGI (SK-OV-3 ovarian): 26.8 µM
- GI50 (ACHN renal): 1.79 µM
- TGI (ACHN renal): 3.17 µM
- GI50 (OVCAR-3 ovarian): 1.75 µM
- TGI (OVCAR-3 ovarian): 3.18 µM

Structure (SMILES): Oc1c(CN2CCC(N3CCCCC3)CC2)cc(Cc2cc(CN3CCC(N4CCCCC4)CC3)c(O)c3ncccc23)c2cccnc12
- GI50 (SN12C renal): 1.62 µM
- TGI (SN12C renal): 16 µM
- GI50 (U251 CNS): 0.835 µM
- TGI (U251 CNS): 13.6 µM
- GI50 (HOP-62 NSCLC): 0.425 µM
- TGI (HOP-62 NSCLC): 4.93 µM
- GI50 (CCRF-CEM leukemia): 0.403 µM
- TGI (CCRF-CEM leukemia): 3.51 µM
- GI50 (RPMI-8226 leukemia): 1.86 µM
- TGI (RPMI-8226 leukemia): 7.22 µM
- GI50 (UACC-257 melanoma): 2.08 µM
- TGI (UACC-257 melanoma): 4.31 µM
- GI50 (IGROV1 ovarian): 1.16 µM
- TGI (IGROV1 ovarian): 17.3 µM
- GI50 (SK-OV-3 ovarian): 1.21 µM
- TGI (SK-OV-3 ovarian): 5.08 µM
- GI50 (ACHN renal): 1.4 µM
- TGI (ACHN renal): 11.7 µM
- GI50 (OVCAR-3 ovarian): 0.517 µM
- TGI (OVCAR-3 ovarian): 10.1 µM

Structure (SMILES): CN1CCN(C)C12C=c1ccccc1=CC21CC1
- TGI (SN12C renal): > 100 µM
- TGI (U251 CNS): > 82 µM
- TGI (HOP-62 NSCLC): > 100 µM
- TGI (CCRF-CEM leukemia): 58.2 µM
- TGI (RPMI-8226 leukemia): 75.1 µM
- TGI (UACC-257 melanoma): 48.2 µM
- TGI (IGROV1 ovarian): > 100 µM
- TGI (SK-OV-3 ovarian): > 100 µM
- TGI (ACHN renal): > 100 µM
- TGI (OVCAR-3 ovarian): > 100 µM

Structure (SMILES): Brc1cccc(C=NC23CC4CC(CC(C4)C2)C3)c1
- TGI (SN12C renal): > 100 µM
- TGI (U251 CNS): > 100 µM
- TGI (HOP-62 NSCLC): > 100 µM
- TGI (CCRF-CEM leukemia): > 100 µM
- TGI (RPMI-8226 leukemia): > 100 µM
- TGI (UACC-257 melanoma): > 100 µM
- TGI (IGROV1 ovarian): > 100 µM
- TGI (SK-OV-3 ovarian): > 100 µM
- TGI (ACHN renal): > 100 µM
- TGI (OVCAR-3 ovarian): > 100 µM

Structure (SMILES): Cn1c(=O)c2[nH]c(SCc3ccccn3)nc2n(C)c1=S
- TGI (SN12C renal): > 100 µM
- TGI (U251 CNS): > 100 µM
- TGI (HOP-62 NSCLC): > 100 µM
- TGI (CCRF-CEM leukemia): > 100 µM
- TGI (RPMI-8226 leukemia): > 100 µM
- TGI (UACC-257 melanoma): > 100 µM
- TGI (IGROV1 ovarian): > 100 µM
- TGI (SK-OV-3 ovarian): 66.4 µM
- TGI (ACHN renal): > 100 µM
- TGI (OVCAR-3 ovarian): > 100 µM

Reference: PubChem BioAssay (NCI)
